Patent US20240165097A1, “PHARMACEUTICAL COMPOSITION FOR THE TREATMENT OF ALZHEIMER'S DISEASE OR DEMENTIA” (Heptares Therapeutics Limited, priority 2021, published 2024)
Like-named read-outs stand apart in the source and are kept apart here.

Assay: Example C: HTL0018318 plasma and urine pharmacokinetics
Type: in vivo, human
Conditions: for CL renal / Cmax / AUC / AUC(0-inf) / half-life / Tmax: human, oral; for Cmax / AUC / AUC(0-inf) / half-life / Tmax: plasma; for AUC: Tau = 24 hrs, read-out: AUC0-tau (mean); for AUC(0-inf): read-out: AUC0-inf (mean)
Procedure: On the days between, only pre-dose PK samples were taken. The last PK blood sample was taken between 7-14 days after the last HTL0018318 dose (Table 7).
For these calculations, data of 15 mg and 25 mg HTL0018318 were grouped together. […]
All PK analyses were performed in Phoenix 64 build 6.4.0.768 using WinNonlin 6.4. Statistical analysis was performed in R version 3.3.1 (2016-06-21) Copyright (C) 2016 The R Foundation for Statistical Computing (Platform: x86_64-w64-mingw32/x64 64-bit).

[1] = fifth dose, 15 and 25 mg grouped
[2] = first dose, 15 and 25 mg grouped

CCOC(=O)N1C2CCC1CC(N1CCC3(CC1)CNC(=O)C3)C2 (stereo not drawn) [HTL0018318, ethyl 3-(3-oxo-2,8-diazaspiro[4.5]dec-8-yl)-8-azabicyclo[3.2.1]octane-8-carboxylate]
Ae (mean) (15 mg + DPZ, 1st dose): 39.9% | CL/F (mean) (15 mg + DPZ, 1st dose): 14.7 L/h | Ae (mean) (15 mg + DPZ, 5th dose): 51.5% | CL/F (mean) (15 mg + DPZ, 5th dose): 14.0 L/h | mean ratio AUC0-tau fifth dose / AUC0-inf first dose (15 mg alone): 1.04 | mean ratio AUC0-tau fifth dose / AUC0-tau first dose (15 mg alone): 1.27 | Ae (mean) (15 mg only, 1st dose): 39.2% | CL/F (mean) (15 mg only, 1st dose): 14.2 L/h | Ae (mean) (15 mg only, 5th dose): 47.9% | CL/F (mean) (15 mg only, 5th dose): 14.0 L/h | mean ratio AUC0-tau fifth dose / AUC0-inf first dose (15 mg, donepezil co-dosed): 1.04 | mean ratio AUC0-tau fifth dose / AUC0-tau first dose (15 mg, donepezil co-dosed): 1.23 | Ae (mean) (25 mg + DPZ, 1st dose): 41.1% | CL/F (mean) (25 mg + DPZ, 1st dose): 17.0 L/h | Ae (mean) (25 mg + DPZ, 5th dose): 47.7% | CL/F (mean) (25 mg + DPZ, 5th dose): 16.0 L/h | mean ratio AUC0-tau fifth dose / AUC0-inf first dose (25 mg alone): 1.06 | mean ratio AUC0-tau fifth dose / AUC0-tau first dose (25 mg alone): 1.23 | Ae (mean) (25 mg only, 1st dose): 32.6% | CL/F (mean) (25 mg only, 1st dose): 17.6 L/h | Ae (mean) (25 mg only, 5th dose): 44.1% | CL/F (mean) (25 mg only, 5th dose): 16.6 L/h | mean ratio AUC0-tau fifth dose / AUC0-inf first dose (25 mg, donepezil co-dosed): 1.03 | mean ratio AUC0-tau fifth dose / AUC0-tau first dose (25 mg, donepezil co-dosed): 1.21 | pharmacokinetic steady-state reached (daily dosing 15 or 25 mg): on or before the fifth daily dose | ratio of AUC0-tau, in combination with donepezil vs alone [1]: 1.00 | ratio of Cmax, in combination with donepezil vs alone [1]: 1.04 | ratio of Cmin, in combination with donepezil vs alone [1]: 0.911 | ratio of Tmax, in combination with donepezil vs alone [1]: 0.974 | ratio of AUC0-24, in combination with donepezil vs alone [2]: 1.02 | ratio of Cmax, in combination with donepezil vs alone [2]: 1.05 | ratio of Tmax, in combination with donepezil vs alone [2]: 1.01 | CL renal (plasma and urine, 25 mg + DPZ, 1st dose): 129 mL/min | CL renal (plasma and urine, 25 mg + DPZ, 5th dose): 113 mL/min | CL renal (plasma and urine, 25 mg, 25 mg only, 1st dose): 104 mL/min | CL renal (plasma and urine, 25 mg, 25 mg only, 5th dose): 109 mL/min | Cmax (15 mg + DPZ, 1st dose): 91.2 ng/mL | AUC (15 mg + DPZ, 1st dose): 932 ng·h/mL | AUC(0-inf) (15 mg + DPZ, 1st dose): 1120 ng·h/mL | half-life (15 mg + DPZ, 1st dose, read-out: Half-life (mean) (converted)): 8.97 h | Tmax (15 mg + DPZ, 1st dose, read-out: Tmax (median)): 2.5 h | Cmax (15 mg + DPZ, 5th dose): 109 ng/mL | AUC (15 mg + DPZ, 5th dose): 1150 ng·h/mL | half-life (15 mg + DPZ, 5th dose, read-out: Half-life (mean) (converted)): 11.6 h | Tmax (15 mg + DPZ, 5th dose, read-out: Tmax (median)): 1.74 h | Cmax (15 mg, 15 mg only, 1st dose): 83.4 ng/mL | AUC (15 mg, 15 mg only, 1st dose): 919 ng·h/mL | AUC(0-inf) (15 mg, 15 mg only, 1st dose): 1130 ng·h/mL | half-life (15 mg, 15 mg only, 1st dose, read-out: Half-life (mean) (converted)): 9.25 h | Tmax (15 mg, 15 mg only, 1st dose, read-out: Tmax (median)): 2 h | Cmax (15 mg, 15 mg only, 5th dose): 103 ng/mL | AUC (15 mg, 15 mg only, 5th dose): 1180 ng·h/mL | half-life (15 mg, 15 mg only, 5th dose, read-out: Half-life (mean) (converted)): 13.8 h | Tmax (15 mg, 15 mg only, 5th dose, read-out: Tmax (median)): 2.05 h | Cmax (25 mg + DPZ, 1st dose): 139 ng/mL | AUC (25 mg + DPZ, 1st dose): 1410 ng·h/mL | AUC(0-inf) (25 mg + DPZ, 1st dose): 1710 ng·h/mL | half-life (25 mg + DPZ, 1st dose, read-out: Half-life (mean) (converted)): 8.73 h | Tmax (25 mg + DPZ, 1st dose, read-out: Tmax (median)): 1.76 h | Cmax (25 mg + DPZ, 5th dose): 171 ng/mL | AUC (25 mg + DPZ, 5th dose): 1740 ng·h/mL | half-life (25 mg + DPZ, 5th dose, read-out: Half-life (mean) (converted)): 10.7 h | Tmax (25 mg + DPZ, 5th dose, read-out: Tmax (median)): 2 h | Cmax (25 mg, 25 mg only, 1st dose): 135 ng/mL | AUC (25 mg, 25 mg only, 1st dose): 1370 ng·h/mL | AUC(0-inf) (25 mg, 25 mg only, 1st dose): 1650 ng·h/mL | half-life (25 mg, 25 mg only, 1st dose, read-out: Half-life (mean) (converted)): 8.52 h | Tmax (25 mg, 25 mg only, 1st dose, read-out: Tmax (median)): 1.75 h | Cmax (25 mg, 25 mg only, 5th dose): 162 ng/mL | AUC (25 mg, 25 mg only, 5th dose): 1710 ng·h/mL | half-life (25 mg, 25 mg only, 5th dose, read-out: Half-life (mean) (converted)): 13.4 h | Tmax (25 mg, 25 mg only, 5th dose, read-out: Tmax (median)): 1.76 h | Tmax (25 mg, 15 and 25 mg, with and without donepezil, read-out: Tmax, range over groups): 1.74 to 2.5 h | half-life (25 mg, 15 and 25 mg, with and without donepezil, read-out: half-life following the fifth dose, range over groups): 10.7 to 13.8 h | CL renal (urine and plasma, 15 mg + DPZ, 1st dose): 109 mL/min | CL renal (urine and plasma, 15 mg + DPZ, 5th dose): 109 mL/min | CL renal (urine and plasma, 15 mg, 15 mg only, 1st dose): 109 mL/min | CL renal (urine and plasma, 15 mg, 15 mg only, 5th dose): 104 mL/min
